Measurements from article PMC8213385, “Development of a Fluorescent Assay to Search New Drugs Using Stable tdTomato-Leishmania, and the Selection of Galangin as a Candidate With Anti-Leishmanial Activity” (Frontiers in Cellular and Infection Microbiology, 2021).

Assays:
[1] = system: promastigotes of L. (L.) donovani; parameters: method as in Kaur et al., 2010; conditions: GAL isolated from Alpinia galanga rhizomes ref Kaur et al., 2010; read-out: IC50 against promastigotes of L. (L.) donovani; cited from earlier work
[2] = system: intracellular amastigotes of L. amaz/tc3; experiment: Fluorescence assay in the macrophage-amastigote model (Raw 264.7 infected with L. amaz/tc3); assay type: cell-based, Leishmania (Leishmania) amazonensis
Method: Furthermore, the efficacy of MI was also determined against intracellular amastigotes of L. amaz/tc3 and L. amaz/wt. Raw 264.7 macrophages were plated in 96-well black plate (5 x 10^4 cells/well) and in eight well Lab-Tek tissue culture slides (6.6 x 10^4 cells/ml) (Nunc, USA). The cells were infected with promastigotes in stationary phase of L. amaz/tc3 and L. amaz/wt (1:20 ratio) at 33°C, 5% CO2. After incubation, the infected macrophages were washed to remove non-internalized parasites with PBS plus P-S. New RPMI-1640 medium with different concentrations of MI (20 to 0.62 µg/ml) was added to each well and incubated at 33°C, 5% CO2 during 48 h. The anti-leishmanial activity of MI was determined by measuring the fluorescence of intracellular amastigotes of L. amaz/tc3 in a plate reader (Tecan, Männedorf, Switzerland). The viability was calculated as mentioned above, and the IC50 was also estimated. Simultaneously, the leishmanicidal activity of MI against L. amaz/wt was determined by the microscopy test. In this case, the infected macrophages were stained with Diff Quik (Biopur S.R.L., Rosario, Argentina) and the number of intracellular amastigotes was determined in 200-500 macrophages in treated and control cultures per slide under the immersion lens microscope (100x) (Leitz Wetzlar, Germany). The infection index (II) and the % infectivity (I) were calculated by the following formulas: II = IM × A, where IM= infected macrophages (%), A= number of amastigotes per infected macrophages; and I(%)=IIT/IIc×100, where IIT= infection index in treated cultures, IIC= infection index in control cultures ([Ayres et al., 2008]). The IC50 of MI was calculated.
The flavonoids anti-leishmanial activity was also evaluated against intracellular amastigotes. Macrophages (Raw 264.7) were plated in 96-well black plate (5 x 10^4 cell/well) and infected with promastigotes in stationary phase of L. amaz/tc3 (1:20 ratio) at 33°C, 5% CO2. After incubation, the infected macrophages were washed to remove non-internalized parasites with PBS plus P-S. New RPMI-1640 medium with different concentrations of GAL (30 to 3.75 µM), MO (300 to 37.5 µM), FI (65 to 8.12 µM), RU (300 to 37.5 µM) and EGCG (30 to 7.5 µM) was added to each well and incubated at 33°C, 5% CO2 for 48 h. Infected cells treated with Ma (136.6 to 34.1 µM) were the positive controls, and cells incubated only with RPMI-1640 were the negative control. The infected macrophages were incubated during 48 h at 33°C, 5% CO2. After treatment, the fluorescence of intracellular amastigotes of L. amaz/tc3 was measured in a plate reader (Tecan, Männedorf, Switzerland). The viability was determined as was described for MI (fluorescent assay). The selectivity index (SI) (CC50 for macrophages/IC50 for Leishmania) was calculated.

Compound: O=c1c(O)c(-c2ccccc2)oc2cc(O)cc(O)c12 [GAL, Galangin]
- IC50 [1]: 100 µM
- Fluorescence Inhibition (%) of amastigotes ([2]; 15 µM, 48 h): 29%
- inhibition at 15 µM ([2]; Leishmania, RAW264.7, 48 h, read-out: Fluorescence Inhibition (%) of amastigotes, 15 µM, 48 h): 29 to 31%
